Test results taken from US6610681B1, “Neurotherapeutic clavulanate composition and method” (Revaax Pharmaceuticals, LLC, priority 1999, dated 2003).

System: male Wistar rats
Experiment: general motor activity in an open field
Assay type: in vivo, rat
Details: 1.0 μg/kg IP, after the plus-maze test, vs vehicle
Method: Immediately after each of the plus-maze tests reported above in Section II, animals were tested for general motor activity in an “open field.” Animals were placed into a large clean Plexiglas cage (48×32×40 cm) devoid of bedding. This open field was delineated into equal quadrants by tape on the underside of the cage. Animals were scored for motor activity by counting the number of quadrants traversed in 1 min.

In the case of `O=C(O)[C@H]1/C(=C/CO)O[C@@H]2CC(=O)N21` [CLAV, clavulanic acid], the “open field activity (quadrants traversed in 1 min)” value is reported as “no significant differences”.
